Laboratory results as given in publication PMC8878468, “Image-Based Annotation of Chemogenomic Libraries for Phenotypic Screening” (Molecules, 2022).
Where two headings read alike, the source gives them in different places. Each block holds one compound with its values, some of them ahead of it.

Columns and labels:
HCT116-FUCCI cells [1] = test: FUCCI cell cycle assay with nuclear gating; type: cell-based, human; conditions: for change of FUCCI nuclei population in comparison to DMSO / main nuclei color: 10 µM; for change of FUCCI nuclei population in comparison to DMSO: up to 70 h; for IC50: Homo sapiens, average and SEM of two independent experiments; for main nuclei color: Table S3
Experimental: For generation of a stable cell line, including the florescent ubiquitination-base cell cycle indicator FUCCI, the plasmid-based transposon system Sleeping Beauty was used. Vector (pSBbi_Fucci) and the Transposase SB100X have been described previously. […] Two days after transfection, cells were selected over 10 days using puromycin (1 µg/mL) and cultivated afterwards for two more weeks in McCoys 5A plus L-Glutamine (Gibco) supplemented by 10% FBS (Gibco) and Penicillin/Streptomycin (Gibco).
Fluorescence and cellular shape were measured before and after compound treatment for 72 h every 12 h using the CQ1 high-content confocal microscope (Yokogawa). […]
Image analysis was performed using the CellPathfinder software (Yokogawa). Segmentation of cells was performed as described earlier. First, the cells are classified in Hoechst High Intensity Objects or Normal Intensity Objects (Supplementary Table S7). All normal gated cells are further classified in healthy, fragmented or pyknosed nuclei (Supplementary Table S7). […] Total cell count was normalized against total cell count of cells treated with 0.1% DMSO.

U2OS cells [2] = test: Multiplex high-content protocol (nuclei gating, tubulin, mitochondrial mass, membrane permeability); type: cell-based, human; conditions: U2OS
Experimental: Using the CQ1 high-content confocal microscope (Yokogawa), cellular shape and fluorescence was measured before and 12 h as well as 24 h after compound treatment. All compounds were diluted in DMSO to a concentration of 10 mM.
The rather large spacing distance was used to create a robust readout, compensating potential plate variations and enabling automated screening without the use of autofocus. The overlap of the fluorescence emission spectra of the dyes was neglectable for all but the MitoTracker Red and Annexin V Alexa Fluor 680 (Supplementary Figure S9).
All images were analyzed using the CellPathfinder software (Yokogawa). Segmentation of cells was performed as described earlier. First, the cells are classified in Hoechst High Intensity Objects or Normal Intensity Objects (Supplementary Table S7). All normal gated cells are further classified in healthy, fragmented or pyknosed nuclei (Supplementary Table S7). The pyknosed cells are gated in mitotic or apoptotic cells using seven features for the cell body and five features for the cell nuclei according to their Annexin V staining intensity (Supplementary Table S7). All cells that were classified as including a healthy nucleus are further gated into three phenotypic classes. […] Growth rate was calculated against non-treated cells and cells treated with DMSO 0.1% [61].

U2OS cells [3] = test: cells; conditions: Homo sapiens
HCT116-FUCCI cells [4] = test system: HCT116-FUCCI cells; set-up: method as in per compound as in column reference of Table S3; conditions: literature annotation in Table S3; ref per compound as in Table S3; cited from earlier work
U2OS cells [5] = conditions: High-Via Extend protocol, cell line and unit inferred
FGFR = conditions: cited from earlier work
[6] = source not stated; cited from earlier work
[7] = read-out: IC 50 14 h, Table S2, 14 h
[8] = read-out: IC 50 26 h, Table S2, 26 h
[9] = read-out: IC 50 42 h, Table S2, 42 h
[10] = read-out: IC 50 56 h, Table S2, 56 h

SMILES: CC[C@@]1(O)C(=O)OCc2c1cc1n(c2=O)Cc2cc3ccccc3nc2-1 [camptothecin]
change of FUCCI nuclei population in comparison to DMSO (HCT116-FUCCI cells [1]): increase in green nuclei
Hoechst High Intensity Objects (Hoechst intensity compared to normal nuclei) (U2OS cells [2]; 1 µM): more than 50%
healthy nuclei (healthy cells) (U2OS cells [2]; 10 µM, 24 h): less than 50%
Hoechst High Intensity Objects (U2OS cells [2]; 10 µM, after 24 h, in one of two biological replicates): > 30%
IC50 (U2OS cells [3]; 14 h, read-out: IC 50 14 h): 2600 nM
IC50 (U2OS cells [3]; 14 h, read-out: IC50, normalized healthy cell count): 4700 nM
IC50 (U2OS cells [3]; 14 h, read-out: IC50, normalized healthy nuclear count): 6100 nM
IC50 (U2OS cells [3]; 26 h, read-out: IC 50 26 h): 2300 nM
IC50 (U2OS cells [3]; 28 h, read-out: IC50, normalized healthy cell count): 1800 nM
IC50 (U2OS cells [3]; 28 h, read-out: IC50, normalized healthy nuclear count): 1700 nM
IC50 (U2OS cells [3]; 42 h, read-out: IC 50 42 h): 1500 nM
IC50 (U2OS cells [3]; 42 h, read-out: IC50, normalized healthy cell count): 290 nM
IC50 (U2OS cells [3]; 42 h, read-out: IC50, normalized healthy nuclear count): 438 nM
IC50 (U2OS cells [3]; 56 h, read-out: IC 50 56 h): 1100 nM
IC50 (U2OS cells [3]; 56 h, read-out: IC50, normalized healthy cell count): 50.9 nM
IC50 (U2OS cells [3]; 56 h, read-out: IC50, normalized healthy nuclear count): 43.4 nM
known cell cycle effect (HCT116-FUCCI cells [4]): mitotic arrest

IC50 (U2OS cells [3]; 14 h, read-out: IC 50 14 h): 2100 nM
IC50 (U2OS cells [3]; 26 h, read-out: IC 50 26 h): 800 nM
IC50 (U2OS cells [3]; 42 h, read-out: IC 50 42 h): 600 nM
IC50 (U2OS cells [3]; 56 h, read-out: IC 50 56 h): 500 nM
SMILES: CNC(=O)c1nn(C)c2c1C(C)(C)Cc1cnc(Nc3ccc(N4CCN(C)CC4)cc3)nc1-2 [milciclib]
cell cycle population distribution of healthy gated nuclei (HCT116-FUCCI cells [1]; 1 µM, after 18 h, versus DMSO): higher population of ‘red’ nuclei
IC50 (HCT116-FUCCI cells [1]; 18h, read-out: IC50(18h), normalized healthy cell count): 5990 ± 260 nM
IC50 (HCT116-FUCCI cells [1]; 32h, read-out: IC50(32h), normalized healthy cell count): 1990 ± 350 nM
IC50 (HCT116-FUCCI cells [1]; 45h, read-out: IC50(45h), normalized healthy cell count): 850 ± 90 nM
IC50 (HCT116-FUCCI cells [1]; 59h, read-out: IC50(59h), normalized healthy cell count): 570 ± 50 nM
increase in mitochondrial mass in comparison to DMSO (U2OS cells [2]; 10 µM, 24 h, healthy nuclei only): over 60%
known cell cycle effect (HCT116-FUCCI cells [4]): G1 cell cy cle arrest

SMILES: COc1cccc2c1C(=O)c1c(O)c3c(c(O)c1C2=O)C[C@@](O)(C(=O)CO)C[C@@H]3O[C@H]1C[C@H](N)[C@H](O)[C@H](C)O1 [doxorubicin]
change of FUCCI nuclei population in comparison to DMSO (HCT116-FUCCI cells [1]): More yellow nuclei
known cell cycle effect (HCT116-FUCCI cells [4]): G0/G1 cell cycle arrest

SMILES: O=C1c2c(O)ccc(O)c2C(=O)c2c(NCCNCCO)ccc(NCCNCCO)c21 [mitoxantrone]
change of FUCCI nuclei population in comparison to DMSO (HCT116-FUCCI cells [1]): increase in green nuclei
known cell cycle effect (HCT116-FUCCI cells [4]): delay in cell cycle

SMILES: N#Cc1c2nc3ccccc3nc2n2ccc(NC(=O)c3cccs3)cc12 [HI-TOPK-032]
main nuclei color (HCT116-FUCCI cells [1]): yellow
change of FUCCI nuclei population in comparison to DMSO (HCT116-FUCCI cells [1]): increased number of cells with yellow nuclei
known cell cycle effect (HCT116-FUCCI cells [4]): during mitosis, G1 cell

SMILES: O=c1cc(-c2ccccc2)oc2c1ccc1ccccc12 [α-naphthoflavone]
change of FUCCI nuclei population in comparison to DMSO (HCT116-FUCCI cells [1]): increase in red nuclei
known cell cycle effect (HCT116-FUCCI cells [4]): G1 cell cy cle arrest

IC50 (U2OS cells [5]; [7]): 800 nM
IC50 (U2OS cells [5]; [8]): 800 nM
IC50 (U2OS cells [5]; [9]): 700 nM
IC50 (U2OS cells [5]; [10]): 700 nM
SMILES: CCC(=O)N1CCN(c2ccc(-n3c(=O)ccc4cnc5ccc(-c6cnc7ccccc7c6)cc5c43)cc2C(F)(F)F)CC1 [torin]

SMILES: COc1cccc2c1C(=O)c1c(O)c3c(c(O)c1C2=O)C[C@@](O)(C(C)=O)C[C@@H]3O[C@H]1C[C@H](N)[C@H](O)[C@H](C)O1 [daunorubicin]
change of FUCCI nuclei population in comparison to DMSO (HCT116-FUCCI cells [1]): More yellow nuclei
healthy nuclei (healthy cells) (U2OS cells [2]; 10 µM, 24 h): less than 50%
known cell cycle effect (HCT116-FUCCI cells [4]): breaks, cell cycle arrest

compound precipitation in assay (U2OS cells [2]; 1 µM): precipitated
SMILES: CCN(CC)CCCCNc1ncc2cc(-c3cc(OC)cc(OC)c3)c(NC(=O)NC(C)(C)C)nc2n1 [PD173074]
cellular activity (FGFR): less than 25 nM
Hoechst High Intensity Objects (Hoechst intensity compared to normal nuclei) (U2OS cells [2]; 1 µM): more than 50%
logP [6]: 4.7

SMILES: Cc1sc2c(c1C)C(c1ccc(Cl)cc1)=N[C@@H](CC(=O)OC(C)(C)C)c1nnc(C)n1-2 [JQ1]
IC50 (U2OS cells [5]; [7]): 9700 nM
IC50 (U2OS cells [5]; [8]): 9000 nM
IC50 (U2OS cells [5]; [9]): 13700 nM
IC50 (U2OS cells [5]; [10]): 200 nM

SMILES: CN1CCN(C(=O)C(C)(C)c2ccc(C(=O)Nc3cn4cc(-c5ccncc5)ccc4n3)cc2)CC1 [T3-CLK]
main nuclei color (HCT116-FUCCI cells [1]): green
known cell cycle effect (HCT116-FUCCI cells [4]): G2/M cell cycle arrest

IC50 (U2OS cells [3]; 14 h, read-out: IC 50 14 h): > 2000 nM
IC50 (U2OS cells [3]; 26 h, read-out: IC 50 26 h): 100 nM
IC50 (U2OS cells [3]; 42 h, read-out: IC 50 42 h): 60 nM
IC50 (U2OS cells [3]; 56 h, read-out: IC 50 56 h): 50 nM
SMILES: CC(=O)O[C@H]1C(=O)[C@@]2(C)[C@H]([C@H](OC(=O)c3ccccc3)[C@]3(O)C[C@H](OC(=O)[C@H](O)[C@@H](NC(=O)c4ccccc4)c4ccccc4)C(C)=C1C3(C)C)[C@]1(OC(C)=O)CO[C@@H]1C[C@@H]2O [paclitaxel]
change of FUCCI nuclei population in comparison to DMSO (HCT116-FUCCI cells [1]): increase in red nuclei
known cell cycle effect (HCT116-FUCCI cells [4]): concentration-dependent
